The text below walks through data of patent US20250099414A1, “COMPOSITIONS AND METHODS FOR TREATING TRIPLE-NEGATIVE BREAST CANCER” (The Board of Regents of the University of Oklahoma, priority 2019, published 2025).

One data set concerns 4T1. The experiment in a line: ANXA5-CMB TNBC cell cytotoxicity, 4T1. Type of data set: cell-based, murine. The settings on record: 24 hours. The source says:
(§1) While the cytotoxic activity of the ANXA5-CMB conjugate is excellent against TNBC cells, the cytotoxicity of the conjugate must be tested against healthy vascular and mammary cells.

For another data set, the system named is EMT6. As to the kind of experiment: ANXA5-CMB TNBC cell cytotoxicity, EMT6. The format is cell-based, murine. The settings on record: 24 hours.
From the text: as §1

The subject of data set [1] is EMT6 cells. The experiment in a line: ICD study: cytotoxicity (cell death) after 24 hours. The format is cell-based, murine. The settings on record: 10 nM DM1.
The test system of another data set is mouse EMT6 TNBC cells. The settings on record: for IC50: read-out: IC50, cell viability, 72 h, concentration of DM1 as free drug or in the conjugate, 2 mM calcium.
The next data set concerns healthy MCF10A cells. The experiment in a line: ANXA5-DM1 and ANXA5 cell viability assay (AlamarBlue), healthy mammary cells. The note with it: for IC50: read-out: IC50, cell viability, 72 h, 100% confluent cells. (In general: Alamar Blue is a resazurin reagent that responds to reducing activity.)
Data set [2] has as its system EMT6 cells. The experiment in a line: ANXA5-VPA TNBC cytotoxicity (Alamar Blue), EMT6. The format is cell-based, murine. The settings on record: 48 hours, VPA in the conjugate or free VPA, 10^−4 to 10 mM. The protocol: (§2) After confirming the conjugation of VPA to ANXA5, the cytotoxicity of the ANXA5-VPA conjugate was tested in two murine TNBC cell lines (EMT6 and 4T1). […] EMT6 and 4T1 cells were seeded at 5,000 cells/well in 96 well plates and treated 48 hours after seeding. Cells were treated with 10^−4 to 10 mM of VPA in the ANXA5-VPA conjugate or free VPA growth medium fully supplemented with 2 mM of calcium to promote ANXA5 binding. After 48 hours, cell viability was analyzed via a fluorescent Alamar Blue assay. Percent viability was determined by normalizing the control (0 mM VPA) to 100% and comparing each treatment group to the control (n=3).

A further data set concerns 4T1 cells. The experiment in a line: ANXA5-VPA TNBC cytotoxicity (Alamar Blue), 4T1. Type of data set: cell-based, murine. The settings on record: 48 hours, VPA in the conjugate or free VPA, 10^−4 to 10 mM. The protocol:
as §2

For data set [3] the following is noted: cited from earlier work.
Another data set has as its system murine TNBC cells. As to the kind of experiment: ANXA5-CMB TNBC cell cytotoxicity, statements on both lines together. Type of data set: cell-based. The settings on record: at 1 μM.
From the text: as §1

A further data set concerns HUVEC cells. As to the kind of experiment: ANXA5-CMB healthy cell cytotoxicity (resazurin), HUVEC. The settings on record: dose up to 100 μM CMB in the conjugate; 90-100% confluency; 2 mM calcium; 24 hours. The protocol: (§3) Cell viability was assayed by a resazurin assay (n=3-6). […] Cells were treated with 0-100 μM of CMB in the ANXA5-CMB conjugate in growth media fully supplemented with 2 mM calcium to promote ANXA5 binding. After 72 hours, an Alamar Blue assay was utilized to determine viability. Percent viability was determined by comparing treatment groups to the untreated control (0 μM).
(§4) Cells were treated with 0-100 μM CMB in the ANXA5-CMB conjugate in fully supplemented growth medium with 2 mM calcium. Cells were grown to 90-100% confluency. […] Cell viability was measured via an Alamar Blue assay and viability was compared to the control (0 μM) after 24 hours. Data is presented as mean±SD (n=4-8). Cells were treated with 0-100 μM CMB in the ANXA5-CMB conjugate in fully supplemented growth medium with 2 mM calcium. Cells were grown to 90-100% confluency. […] Cell viability was measured via an Alamar Blue assay and viability was compared to the control (μM) after 24 hours. Data is presented as mean±SD (n=4-8).

In a further data set the test system is MCF10A cells. As to the kind of experiment: ANXA5-CMB healthy cell cytotoxicity (resazurin), MCF10A. Type of data set: cell-based, human. The settings on record: 90-100% confluency; 2 mM calcium; 24 hours. The protocol: as §3, §4
Data set [4] concerns EMT6 cells. As to the kind of experiment: Immunogenic cell death: ATP release (luminescence kit). Type of data set: cell-based, murine. The note with it: 24 h. The protocol:
To determine if ANXA5-DM1 induces ATP release from cells after treatment, an ATP luminescence kit (Molecular Probes, Eugene, OR, USA) was utilized according to the manufacturer's instructions. […] After 24 h, 10 μL of cell media was added to 90 μL of standard reaction solution in a white plate. Luminescence reading was obtained from the plate reader, and ATP concentration was calculated by comparing the luminescence reading to a standard curve.

Data set [5] relates to EMT6 cells. The experiment in a line: Immunogenic cell death: calreticulin surface expression (flow cytometry). The format is cell-based, murine. The note with it: 10 nM DM1; 24 h. The protocol: To determine if ANXA5-DM1 induces calreticulin surface expression, flow cytometry was utilized. EMT6 and 4T1 cells were seeded at 25,000 cells/well in 24 well plates and treated 24 h after seeding. […] After 24 h, media was collected into microcentrifuge tubes to collect dead cells. To ensure there would be enough cells, three wells were combined to be one sample. Cells in the plates were then washed with PBS, and 100 μL of trypsin was added to each well. Once 90% of the cells were removed from the plate (2-5 min), cells were added to the microcentrifuge tubes and centrifuged at 500×g for 5 min. Cells were resuspended in 200 μL of 0.5% BSA-PBS and counted to have at least 100,000 cells per sample. Cells were then fixed with 4% paraformaldehyde (PFA, Thermo Fisher Scientific, Waltham MA, USA) for 20 min at 4° C. Cells were then washed two times with 500 μl of 0.5% BSA-PBS at 500×g for 5 minutes. […] After incubation, cells were analyzed on a BD Biosciences Accuri C6 flow cytometer (Franklin Lakes, New Jersey, USA) with excitation at 488 nm, and a 533/30 bandpass filter was used to capture 10,000 gated events per sample. Data was collected and analyzed with BD C6 Accuri software. One sample was composed of three wells, and each sample was analyzed three times. […]
In general terms: Flow cytometry measures light scatter and fluorescence of single cells or particles in a stream.

The subject of data set [6] is murine TNBC cell lines (EMT6 and 4T1). The experiment in a line: ANXA5-VPA TNBC cytotoxicity, statement on both lines together. Type of data set: cell-based. The note with it: 48 hours. The protocol: as §2
Data set [7] has as its system EMT6-strain TNBC cells with PS externalization. The experiment in a line: ANXA5 colorimetric binding (modified indirect ELISA), EMT6. On the set-up: species or system murine. The settings on record: 0-20 nM biotinylated ANXA5; 2 mM Ca2+; read-out: dissociation constant of the specific binding. The protocol: (§5) Binding strength was analyzed via a modified indirect ELISA. Cells (50,000 cells/well) were grown onto 24 well plates and fixed with 0.025% glutaraldehyde once cancer cells were 70-80% confluent, or MCF10A noncancerous cells were 100% confluent. Cancer cells were blocked with 0.5% BSA for 1 h at 37° C. Cells were incubated with 0-20 nM of biotinylated ANXA5 for 2 h at 37° C. and 5% CO2. ANXA5 was biotinylated with a Roche biotin protein labeling kit (Roche, Basel, Switzerland), and the level of biotinylation was quantified with a Pierce Biotin Quantification kit (Pierce Biotechnology, Waltham, MA, USA) per manufacturer's instructions. Cells were washed four times with 0.5% BSA to remove unbound ANXA5. […] The supernatant was collected, and the absorbance was read at 450 nm on a BioTek Synergy HT microtiter plate reader (Winooski, VT). […] The dissociation constant was determined using the nonlinear regression one-site total and nonspecific binding model in GraphPad Prism version 9 software (Graph Pad, San Diego California, USA).
(§6) To confirm the ability of the ANXA5 to bind to PS on the surface of TNBC cells, equilibrium binding experiments with increasing concentrations of biotinylated ANXA5 were used. […] After subtracting out 0 nM ANXA5 background absorbance, the non-specific binding was essentially 0, meaning ANXA5 was not binding to the EMT6 and 4T1 cells when Ca^2+ was absent. […]

For data set [8], the system named is 4T1-strain TNBC cells with PS externalization. The experiment in a line: ANXA5 colorimetric binding (modified indirect ELISA), 4T1. On the set-up: species or system murine. The settings on record: 0-20 nM biotinylated ANXA5; 2 mM Ca2+; read-out: dissociation constant of the specific binding. The protocol:
as §5, §6

For data set [9], the system named is healthy MCF10A human breast cells. As to the kind of experiment: ANXA5 colorimetric binding (modified indirect ELISA), MCF10A. The protocol:
as §5, §6

Setting [10] is: read-out: IC50, cell viability, 72 h, concentration of DM1 as free drug or in the conjugate, 2 mM calcium.

“Also recorded” adds a separate entry of the source. Where two headings read alike, the source gives them in different places. Where only a bound is given, the exact number is not on record here.

In the case of `O=C(O)CCCc1ccc(N(CCCl)CCCl)cc1` [CMB, Chlorambucil, reference compound], the IC50 in the data set with 4T1 (Mus musculus, 4T1) amounted to 156 µM; with EMT6 (Mus musculus, EMT6), 102 µM.

On to `COc1cc2cc(c1Cl)N(C)C(=O)C[C@H](OC(=O)[C@H](C)N(C)C(=O)CCS)[C@]1(C)O[C@H]1[C@H](C)[C@@H]1C[C@@](O)(NC(=O)O1)[C@H](OC)/C=C/C=C(\C)C2` [DM1, Mertansine, reference compound], for which the “cell death (cytotoxicity)” value in the data set with EMT6 cells [1] is listed as “significantly increased cell death”. The IC50 in the data set with mouse 4T1 TNBC cells (setting [10]) came out at 0.32 µM; with mouse EMT6 TNBC cells it was 0.028 µM; in the data set on healthy MCF10A cells (concentration of DM1), 0.16 µM.

`CCCC(CCC)C(=O)O` [VPA, Valproic acid]: the IC50 concentration result in the data set on EMT6 cells [2] and with 4T1 cells was “could not be obtained with a dose of up to 10 mM; also recorded: could not be calculated” throughout. Also, the IC50 in [3] (72-96 hours, read-out: concentration required to achieve an IC50 value) is more than 1000 µM. The “dose required to be effective in vitro” value in data set [3] (delivered alone, after 72 hours) was 1 to 10 mM.

As to “ANXA5-CMB: chlorambucil linked to ANXA5 lysine residues via EDC crosslinking chemistry”, the values for the IC50 in the data set on 4T1, in the data set with EMT6 and in the data set on MCF10A cells were 2.7 µM, 0.42 µM and 6 µM, respectively. Further, the “IC50 ratio (CMB / ANXA5-CMB)” value in the data set with 4T1 is 57; in the data set on EMT6, 241. Further, the cytotoxicity in the data set with murine TNBC cells was determined as 100%. Further, the “effect on cell viability” value in the data set on HUVEC cells is on record as “did not impact viability”.

In the case of “ANXA5-DM1: mertansine (DM1) linked to lysine residues of recombinant annexin A5 with the crosslinker sulfo-SMCC”, the ATP release result in the data set with EMT6 cells [4] (10 nM DM1, versus free DM1 or control) is listed as “significantly increased ATP release; also recorded: significant increase”. Moreover, the “ATP released relative to free DM1” value with EMT6 cells [4] (10 nM) is approximately 10 times. For the same compound, the “calreticulin surface expression (median fluorescent intensity)” value with EMT6 cells [5] was “significantly increased calreticulin surface expression; also recorded: significant increase”. For the same compound, in the data set on EMT6 cells [1], the “cell death (cytotoxicity)” value is “significantly increased cell death”. Moreover, the “potency (IC50) relative to free DM1” value in the data set on mouse 4T1 TNBC cells (72 h viability assay) and with mouse EMT6 TNBC cells (72 h viability assay) was “more than 2 orders of magnitude” in each case. Further, the IC50 in the data set on mouse 4T1 TNBC cells (setting [10]) is 0.00085 µM; in the data set on mouse 4T1 TNBC cells (read-out: equivalent IC50 based on the ANXA5 concentration, assuming 4 moles DM1 per mole ANXA5, from 0.85 nM DM1), 0.00021 µM; in the data set on mouse EMT6 TNBC cells, 0.00021 µM; in the data set with healthy MCF10A cells (concentration of DM1), more than 5 µM; in the data set on healthy MCF10A cells (doses up to 48 μM), more than 48 µM. Moreover, in the data set with healthy MCF10A cells (100% confluence, compared with free DM1, doses up to 48 μM), the “cytotoxicity to healthy breast cells” value is “significantly less cytotoxic; also recorded: does not have cytotoxic effects”.

Consider ANXA5-VPA, for which the IC50 with EMT6 cells [2] (read-out: IC50 concentration) and in the data set on 4T1 cells (read-out: IC50 concentration) was approximately 10 µM each time. Also, the “lowest dose with significantly increased cell death compared to the free drug control” value in data set [6] is given as 97 nM.

For the compound “ANXA5: recombinant annexin A5 produced in E. coli; binds phosphatidylserine in a Ca2+-dependent manner”, the Kd in data set [7] stood at 0.00114 µM; in data set [8], 0.00231 µM. Also, in data set [9] (cells grown to confluence), the “dissociation constant (Kd)” value is on record as “not detectable”. Besides, in data set [9] (total minus nonspecific binding), the “specific binding of ANXA5 to the cells” value was “no specific binding; also recorded: no ANXA5-PS binding was observed”.
